Common to all, as to assay type: in vivo
One assay concerns ICR mice. The assay can be described thus: Triglyceride (TG) in blood plasma increase-inhibiting action due to lipid administration. Conditions: Mus musculus; male ICR mice, 5 mg/kg oral, lipid (Intralipos 20%) after 30 minutes, plasma TG 2 hours after lipid; read-out: Inhibiting rate of TG-increase in blood plasma (5 mg/kg). Summed up:
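Male ICR mice (6–9 weeks), fasted overnight, dosed orally with compound in 0.2% CMC; oral lipid emulsion (10 mL/kg) 30 min later. Plasma TG from tail vein before and 2 h after lipid load; rise in TG expressed as percent inhibition versus vehicle group.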

In a further assay the test system is KK-Ay mice. The assay can be described thus: Weight gain-inhibiting action, hypoglycemic effect, insulin in blood plasma lowering action in KK-Ay mice. Conditions: Mus musculus, 336 h, male KK-Ay mice, high fat diet, 30 mg/kg/day oral, 2 weeks. The method, then: To 8 weeks-old male KK-Ay mice were provided high fat diet (Oriental Yeast Co., Ltd, 60 cal % fat), and Test compound suspended in 0.2% carboxymethylcellulose solution was orally administered once a day. Oral administration was continued for 2 weeks, and a weight gain-inhibiting rate of the Test compound was calculated by using a weight gain amount of the solvent control group during the test period as 100%. After final administration, the mice were fasted overnight, and blood was collected from tail vein. Measurement of a blood-sugar level was carried out by using glucose Cα Test Wako (Wako Pure Chemical Industries, Ltd.), and measurement of insulin in blood plasma was carried out by using a mouse insulin measurement kit (Morinaga Institute of Biological Science, Inc.).

A further assay relates to C57BL/6J mice. The assay can be described thus: Antifeeding activity (high fat diet intake up to 4 hours). Conditions: Mus musculus, male C57BL/6J mice, 5 mg/kg oral, food ingested up to 4 hours, read-out: Antifeeding rate (5 mg/kg).
The mark [1] stands for this setting: read-out: Hypoglycemic action (30 mg/kg/day).
The mark [2] stands for this setting: read-out: Insulin in blood plasma-lowering action (30 mg/kg/day).
Where [3] appears, read: read-out: Weight gain-inhibiting action (30 mg/kg/day).

Like-named read-outs stand apart in the source and are kept apart here.

Consider `Cc1cc(OCC(C)(C)C(=O)O)ncc1-c1cnc(-c2ncc(C(F)(F)F)[nH]2)c(Cl)c1` [Example 112], for which the inhibition in vivo at 5 mg/kg is 67% in the assay with ICR mice and 52% with C57BL/6J mice. The inhibition in vivo at 30 mg/kg in the assay with KK-Ay mice (setting [1]) was found to be 49%; in the assay with KK-Ay mice (setting [2]), 61%; in the assay on KK-Ay mice (setting [3]) it was 47%.
As to `CC(C)(COc1ccc(-c2cnc(-c3ncc(C(F)(F)F)[nH]3)cn2)cc1)C(=O)O` [Example 7-7), 2,2-dimethyl-3-(4-{5-[5-(trifluoromethyl)-1H-imidazol-2-yl]pyrazin-2-yl}phenoxy)-propanoic acid], the inhibition in vivo at 5 mg/kg in the assay with ICR mice was found to be 71%; in the assay on C57BL/6J mice, 75%. In addition, the inhibition in vivo at 30 mg/kg came out at 62% in the assay on KK-Ay mice (setting [1]), 58% with KK-Ay mice (setting [2]) and 66% with KK-Ay mice (setting [3]).
In the same order, the values of `Cc1cc(OCC(C)(C)C(=O)O)ncc1-c1ccc(-c2ncc(C(F)(F)F)[nH]2)c(Cl)c1` [Example 63-3), 3-[(5-{3-chloro-4-[5-(trifluoromethyl)-1H-imidazol-2-yl]phenyl}-4-methylpyridin-2-yl)oxy]-2,2-dimethylpropanoic acid] are 60%, 83%, 77%, 90% and 115%.
Regarding `Cc1cc(OCC(C)(C)C(=O)O)ncc1-c1ccc(-c2ncc(C(F)(F)F)[nH]2)c(F)c1` [Example 62-3), 3-[(5-{3-fluoro-4-[5-(trifluoromethyl)-1H-imidazol-2-yl]phenyl}-4-methylpyridin-2-yl)oxy]-2,2-dimethylpropanoic acid], the inhibition in vivo at 5 mg/kg in the assay on ICR mice was 85%; in the assay on C57BL/6J mice it was 63%. Also, the inhibition in vivo at 30 mg/kg with KK-Ay mice (setting [1]) came out at 80%; in the assay on KK-Ay mice (setting [2]) it was 95%; in the assay with KK-Ay mice (setting [3]), 161%.
Turning to `Cc1cc(OCC(C)(C)C(=O)O)ncc1-c1ccc(-c2ncc(C(F)(F)F)[nH]2)c(C)c1` [Example 77], the inhibition in vivo at 5 mg/kg in the assay with ICR mice came out at 75%; in the assay with C57BL/6J mice it was 65%. In addition, the inhibition in vivo at 30 mg/kg in the assay with KK-Ay mice (setting [1]) is 60%; in the assay on KK-Ay mice (setting [2]), 65%.
`Cc1cc(OCC2(C(=O)O)CCC2)ccc1-c1ccc(-c2ncc(C(F)(F)F)[nH]2)cn1` [Example 70]: the inhibition in vivo at 5 mg/kg turned out to be 67% in the assay on ICR mice and 59% with C57BL/6J mice. Also, the inhibition in vivo at 30 mg/kg is 52% in the assay with KK-Ay mice (setting [1]), 27% in the assay with KK-Ay mice (setting [2]) and 45% in the assay on KK-Ay mice (setting [3]).
In the same order, the values of `Cc1cc(OCC(C)(C)C(=O)O)ncc1-c1ccc(-c2ncc(C3(C(F)(F)F)CC3)[nH]2)c(F)c1` [Example 54-4), 3-{[5-(3-fluoro-4-{5-[1-(trifluoromethyl)cyclopropyl]-1H-imidazol-2-yl]phenyl)-4-methylpyridin-2-yl}oxy}-2,2-dimethylpropanoic acid] are 74%, 46%, 74%, 93% and 113%.
Take `Cc1cc(OCC(C)(C)C(=O)O)ncc1-c1cnc(-c2ncc(C(F)(F)F)[nH]2)cn1` [Example 95-6), 2,2-dimethyl-3-[(4-methyl-5-{5-[5-(trifluoromethyl)-1H-imidazol-2-yl]pyrazin-2-yl}pyridin-2-yl)oxy]propanoic acid]: the inhibition in vivo at 5 mg/kg with ICR mice was determined as 70%; in the assay on C57BL/6J mice, 83%. Moreover, the inhibition in vivo at 30 mg/kg was determined as 66% in the assay with KK-Ay mice (setting [1]), 58% with KK-Ay mice (setting [2]) and 75% in the assay on KK-Ay mice (setting [3]).
In the same order, the values of `CC(C)(COc1cnc(-c2ccc(-c3nc(C(F)(F)F)c[nH]3)cc2)cn1)C(=O)O` [Example 89-2), 2,2-dimethyl-3-[(5-{4-[4-(trifluoromethyl)-1H-imidazol-2-yl]phenyl}pyrazin-2-yl)oxy]-propanoic acid] are 52%, 75%, 68%, 88% and 63%.
The like results for `CC(C)(COc1ccc(-c2ccc(-c3ncc(C(F)(F)F)[nH]3)c(F)c2)cn1)C(=O)O` [Example 76] were, in that order, 78%, 61%, 65%, 81% and 69%.
`Cc1cc(OCC(C)(C)C(=O)O)ncc1-c1ccc(-c2ncc(C(F)(F)F)[nH]2)cn1` [Example 72]: the inhibition in vivo at 5 mg/kg in the assay on ICR mice stood at 85%; with C57BL/6J mice, 65%. For the same compound, the results for the inhibition in vivo at 30 mg/kg with KK-Ay mice (setting [1]), with KK-Ay mice (setting [2]) and with KK-Ay mice (setting [3]) were 38%, 28% and 43%, respectively.
Take `O=C(O)C1(COc2ccc(-c3ccc(-c4ncc(C(F)(F)F)[nH]4)cn3)cc2)CCC1` [Example 14]: the inhibition in vivo at 5 mg/kg with ICR mice came to 69%; in the assay on C57BL/6J mice, 66%. Also, the inhibition in vivo at 30 mg/kg was 23% in the assay on KK-Ay mice (setting [1]), 27% with KK-Ay mice (setting [2]) and 17% with KK-Ay mice (setting [3]).
`Cc1cc(OCC(C)(C)C(=O)O)ncc1-c1ccc(-c2ncc(C3(C(F)(F)F)CC3)[nH]2)nc1` [Example 36]: the figures for the inhibition in vivo at 5 mg/kg in the assay on ICR mice and in the assay on C57BL/6J mice were 69% and 63%, respectively. In addition, the inhibition in vivo at 30 mg/kg stood at 23% in the assay with KK-Ay mice (setting [1]), 19% with KK-Ay mice (setting [2]) and 59% with KK-Ay mice (setting [3]).
In the case of `CC(C)(COc1ncc(-c2ccc(-c3ncc(C(F)(F)F)[nH]3)c(F)c2)cc1F)C(=O)O` [Example 84], the values for the inhibition in vivo at 5 mg/kg in the assay with ICR mice and in the assay with C57BL/6J mice were 75% and 64%, respectively. Further, the values for the inhibition in vivo at 30 mg/kg in the assay with KK-Ay mice (setting [1]), in the assay on KK-Ay mice (setting [2]) and with KK-Ay mice (setting [3]) were 65%, 76% and 48%, respectively.
For the compound `Cc1nc(OCC(C)(C)C(=O)O)ccc1-c1ccc(-c2ncc(C(F)(F)F)[nH]2)cc1` [Example 74], the inhibition in vivo at 5 mg/kg in the assay on ICR mice was 50%; with C57BL/6J mice, 60%. For the same compound, the inhibition in vivo at 30 mg/kg worked out at 56% in the assay with KK-Ay mice (setting [1]), 51% with KK-Ay mice (setting [2]) and 47% in the assay with KK-Ay mice (setting [3]).
Regarding `Cc1cc(OCC(C)(C)C(=O)O)ncc1-c1ccc(-c2ncc(CC(C)C)[nH]2)c(F)c1` [Example 119], the inhibition in vivo at 5 mg/kg stood at 67% in the assay on ICR mice and 51% in the assay with C57BL/6J mice. For the same compound, the inhibition in vivo at 30 mg/kg in the assay on KK-Ay mice (setting [1]) came to 40%; in the assay on KK-Ay mice (setting [2]) it was 28%; with KK-Ay mice (setting [3]), 36%.
`CC(C)(COc1ccc(-c2ccc(-c3ncc(C(F)(F)F)[nH]3)cn2)cc1F)C(=O)O` [Example 4-2), 3-(2-fluoro-4-{5-[5-(trifluoromethyl)-1H-imidazol-2-yl]pyridin-2-yl}phenoxy)-2,2-dimethylpropanoic acid]: the inhibition in vivo at 5 mg/kg with ICR mice was determined as 60%; in the assay on C57BL/6J mice it was 82%. Further, the inhibition in vivo at 30 mg/kg in the assay with KK-Ay mice (setting [1]) was determined as 50%; with KK-Ay mice (setting [2]) it was 52%; in the assay on KK-Ay mice (setting [3]) it was 49%.
The like results for `CC(C)Cc1cnc(-c2ccc(-c3ccc(OCC(C)(C)C(=O)O)cc3)nc2)[nH]1` [Example 26] were, in that order, 67%, 79%, 40%, 27% and 44%.
Turning to `CC(C)(COc1ccc(-c2ccc(-c3ncc(C4(C(F)(F)F)CC4)[nH]3)c(F)c2)cn1)C(=O)O` [Example 45], the inhibition in vivo at 5 mg/kg in the assay with ICR mice was found to be 71%; in the assay on C57BL/6J mice, 72%. For the same compound, the inhibition in vivo at 30 mg/kg in the assay with KK-Ay mice (setting [1]) worked out at 59%; with KK-Ay mice (setting [2]), 56%; in the assay with KK-Ay mice (setting [3]), 42%.
Consider `Cc1cc(OCC(C)(C)C(=O)O)ncc1-c1cnc(-c2ncc(C(F)(F)F)[nH]2)c(F)c1` [Example 107], for which the inhibition in vivo at 5 mg/kg was determined as 62% with ICR mice and 57% with C57BL/6J mice. The values for the inhibition in vivo at 30 mg/kg in the assay with KK-Ay mice (setting [1]), in the assay with KK-Ay mice (setting [2]) and in the assay with KK-Ay mice (setting [3]) were 57%, 58% and 48%, respectively.
Turning to `Cc1cc(-c2ccc(OCC(C)(C)C(=O)O)cc2)ncc1-c1ncc(C(F)(F)F)[nH]1` [Example 5-3), 2,2-dimethyl-3-(4-{4-methyl-5-[5-(trifluoromethyl)-1H-imidazol-2-yl]pyridin-2-yl}-phenoxy)propanoic acid], the inhibition in vivo at 5 mg/kg with ICR mice amounted to 71%; in the assay with C57BL/6J mice it was 37%. In addition, the inhibition in vivo at 30 mg/kg came to 55% with KK-Ay mice (setting [1]), 56% with KK-Ay mice (setting [2]) and 48% in the assay with KK-Ay mice (setting [3]).

The values above are taken from US9302996B2, “Continuous arycyclic compound” (MITSUBISHI TANABE PHARMA CORPORATION, priority 2010, dated 2016).
